US11279711B2, “Condensed heterocyclic derivates as BCL-2 inhibitors for the treatment of neoplastic diseases” (Newave Pharmaceutical Inc., priority 2017, dated 2022)
Each block holds one molecule with its values, some of them ahead of it.

Assays:
[1] = tested on: BCL-2-dependent acute lymphoblastic leukemia (ALL) cell line RS4;11; experiment: In vitro anti-proliferation assay (ATPlite) in RS4;11; assay type: cell-based; conditions: Homo sapiens; RS4;11, 5% FBS, about 72 hours; read-out: IC50, RS4; 115% FBS
Description: Biological Example 2: In Vitro Anti-Proliferation Assay in BCL-2-Dependent Acute Lymphoblastic Leukemia (ALL) Cell Line RS4;11
(§1) Cell antiproliferation was assayed by PerkinElmer ATPlite™ Luminescence Assay System. Briefly, the various test cancer cell lines were plated at a density of about 1×10^4 cells per well in Costar 96-well plates, and were incubated with different concentrations of compounds for about 72 hours in medium supplemented with 5% FBS or 10% normal human serum (NHS). One lyophilized substrate solution vial was then reconstituted by adding 5 mL of substrate buffer solution, and was agitated gently until the solution was homogeneous. About 50 μL of mammalian cell lysis solution was added to 100 μL of cell suspension per well of a microplate, and the plate was shaken for about five minutes in an orbital shaker at −700 rpm. This procedure was used to lyse the cells and to stabilize the ATP. Next, 50 μL substrate solution was added to the wells and microplate was shaken for five minutes in an orbital shaker at ˜700 rpm. Finally, the luminescence was measured by a PerkinElmer TopCount® Microplate Scintillation Counter. Such assays, carried out with a range of doses of test compounds, allowed the determination of the cellular anti-antiproliferative IC50 of the compounds of the present invention. The following table lists the IC50 values of certain compounds of the invention.

Toledo = experiment: In vitro anti-proliferation assay (ATPlite), Toledo; assay type: cell-based; conditions: Homo sapiens, 5% FBS, about 72 hours
Description: (§2) Biological Example 3: In Vitro Anti-Proliferation Assay in Small Cell Lung Cancer (SCLC) Cell Line
as §1, with “FBS.” for “FBS or 10% normal human serum (NHS).”, “˜700” for “−700”, “invention.” for “invention. The following table lists the IC50 values of certain compounds of the invention.”

MV411 = experiment: In vitro anti-proliferation assay (ATPlite), MV411; assay type: cell-based; conditions: Homo sapiens, MV4-11; 5% FBS, about 72 hours
Description: as §2
as §1, with “FBS.” for “FBS or 10% normal human serum (NHS).”, “˜700” for “−700”, “invention.” for “invention. The following table lists the IC50 values of certain compounds of the invention.”

Granta = experiment: In vitro anti-proliferation assay (ATPlite), Granta; assay type: cell-based; conditions: 5% FBS, about 72 hours
Description: as §2
as §1, with “FBS.” for “FBS or 10% normal human serum (NHS).”, “˜700” for “−700”, “invention.” for “invention. The following table lists the IC50 values of certain compounds of the invention.”

Mcl-1 = Mcl-1 (Homo sapiens, UniProt Q07820); conditions: cited from earlier work
Mcl-1, sequence (Q07820 whole entry): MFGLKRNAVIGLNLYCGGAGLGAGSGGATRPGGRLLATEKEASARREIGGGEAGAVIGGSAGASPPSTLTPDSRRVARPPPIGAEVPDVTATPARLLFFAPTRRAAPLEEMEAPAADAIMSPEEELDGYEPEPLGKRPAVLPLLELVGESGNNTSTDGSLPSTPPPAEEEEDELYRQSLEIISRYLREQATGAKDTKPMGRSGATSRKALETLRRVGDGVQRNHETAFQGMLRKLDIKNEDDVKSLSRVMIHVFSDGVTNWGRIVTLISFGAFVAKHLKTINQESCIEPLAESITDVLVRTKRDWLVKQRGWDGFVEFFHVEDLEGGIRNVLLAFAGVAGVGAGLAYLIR

RS4;11 cells = conditions: cited from earlier work
CLL = conditions: read-out: average EC50, apoptosis in CLL; cited from earlier work
RS4;11 xenografts = conditions: single dose of 100 mg/kg; cited from earlier work
H146 = experiment: In vitro anti-proliferation assay (ATPlite), small cell lung cancer cell line H146; assay type: cell-based; conditions: 5% FBS, about 72 hours
Description: as §2
as §1, with “FBS.” for “FBS or 10% normal human serum (NHS).”, “˜700” for “−700”, “invention.” for “invention. The following table lists the IC50 values of certain compounds of the invention.”
(§3) Cisplatin, the standard of Care of small cell lung cancer cell lines was used as the positive control drug.

H889 = experiment: In vitro anti-proliferation assay (ATPlite), small cell lung cancer cell line H889; assay type: cell-based; conditions: 5% FBS, about 72 hours
Description: as §2
as §1, with “FBS.” for “FBS or 10% normal human serum (NHS).”, “˜700” for “−700”, “invention.” for “invention. The following table lists the IC50 values of certain compounds of the invention.”
as §3

H1963 = experiment: In vitro anti-proliferation assay (ATPlite), small cell lung cancer cell line H1963; assay type: cell-based; conditions: 5% FBS, about 72 hours
Description: as §2
as §1, with “FBS.” for “FBS or 10% normal human serum (NHS).”, “˜700” for “−700”, “invention.” for “invention. The following table lists the IC50 values of certain compounds of the invention.”
as §3

Bcl-w = molecular target: T1, Bcl-w (Homo sapiens, UniProt Q92843); conditions: cited from earlier work
T1 sequence (Q92843 1-193): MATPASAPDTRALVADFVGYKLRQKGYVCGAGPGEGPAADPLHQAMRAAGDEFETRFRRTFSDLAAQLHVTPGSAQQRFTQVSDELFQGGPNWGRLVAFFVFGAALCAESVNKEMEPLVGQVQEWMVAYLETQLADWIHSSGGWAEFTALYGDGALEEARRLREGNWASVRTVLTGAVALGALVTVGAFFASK

SCLC H146 cell line = conditions: read-out: IC50 against SCLC H146 cell line; cited from earlier work
H345 xenograft = conditions: 100 mg/kg/day, H345 xenograft model; cited from earlier work
[2] = tested on: xenograft models of small-cell lung cancer and acute lymphoblastic leukemia; conditions: oral administration, alone; cited from earlier work
circulating platelets = conditions: clinical trial; dose-limiting thrombocytopenia; cited from earlier work
[3] = in vivo; cited from earlier work
[4] = cited from earlier work
[5] = Mice PK study, oral dosing; assay type: in vivo; conditions: CD-1 mouse, 10 mg/kg; for AUC(0-t) / bioavailability / half-life: plasma; for bioavailability: read-out: Bioavailabilty; for half-life: read-out: t ½ (converted)
Description: Biological Example 4: Mice PK Study
The pharmacokinetics of compounds were evaluated in CD-1 mouse via Intravenous and Oral Administration. The IV dose was administered as a slow bolus in the Jugular vein, and oral doses were administered by gavage. The formulation for IV dosing was 5% DMSO in 20% HPBCD in water, and the PO formulation was 2.5% DMSO, 10% EtOH, 20% Cremphor EL, 67.5% D5W. The PK time point for the IV arm was 5, 15, 30 min, 1, 2, 4, 6, 8, 12, 24 hours post dose, and for PO arm was 15, 30 min, 1, 2, 4, 6, 8, 12, 24 hours post dose. Approximately 0.03 mL blood was collected at each time point. Blood of each sample was transferred into plastic micro centrifuge tubes containing EDTA-K2 and collect plasma within 15 min by centrifugation at 4000 g for 5 minutes in a 4° C. centrifuge. Plasma samples were stored in polypropylene tubes. The samples were stored in a freezer at −75±15° C. prior to analysis. Concentrations of compounds in the plasma samples were analyzed using a LC-MS/MS method. WinNonlin (Phoenix™, version 6.1) or other similar software was used for pharmacokinetic calculations. The following pharmacokinetic parameters were calculated, whenever possible from the plasma concentration versus time data: IV administration: C0, CL, Vd, T1/2, AUCinf, AUClast, MRT, Number of Points for Regression; PO administration: Cmax, Tmax, T1/2, AUCinf, AUClast, F %, Number of Points for Regression. The pharmacokinetic data was described using descriptive statistics such as mean, standard deviation. Additional pharmacokinetic or statistical analysis was performed at the discretion of the contributing scientist, and was documented in the data summary.

- IC50 [1]: 5.8 nM
- IC50 (MV411): 20.1 nM
SMILES: CC1(C)CCC(CN2CCN(c3ccc(C(=O)NS(=O)(=O)c4ccc(NCC5CCOCC5)c([N+](=O)[O-])c4)c(Oc4cnc5[nH]ccc5c4)c3)CC2)=C(c2ccc(Cl)cc2)C1 [ABT-199]
- IC50 (Toledo): 98.1 nM
- IC50 (Granta): 42.5 nM
- activity to Mcl-1 (Mcl-1): no activity
- EC50 (RS4;11 cells): 8 nM
- EC50 (CLL): 3 nM
- maximal tumor growth inhibition (RS4;11 xenografts): 95%
- tumor growth delay (RS4;11 xenografts): 152%

- IC50 (H146; Homo sapiens, NCI-H146): 28 nM
- IC50 (H889; Homo sapiens, NCI-H889): 32.4 nM
- IC50 (H1963; Homo sapiens, NCI-H1963): 41.7 nM
SMILES: CC1(C)CCC(c2ccc(Cl)cc2)=C(CN2CCN(c3ccc(C(=O)NS(=O)(=O)c4ccc(N[C@H](CCN5CCOCC5)CSc5ccccc5)c(S(=O)(=O)C(F)(F)F)c4)cc3)CC2)C1 [ABT-263]
- Ki (Bcl-w): ≤ 1 nM
- IC50 (SCLC H146 cell line): 110 nM
- TGI (H345 xenograft): 80%
- treated tumors indicating at least a 50% reduction in tumor volume (H345 xenograft): 20%
- tumor regression [2]: complete tumor regressions
- number of circulating platelets (circulating platelets): rapid, concentration-dependent decrease in the number of circulating platelets

The next lines start with the molecule.

SMILES: CN(C)CC[C@H](CSc1ccccc1)Nc1ccc(S(=O)(=O)NC(=O)c2ccc(N3CCN(Cc4ccccc4-c4ccc(Cl)cc4)CC3)cc2)cc1[N+](=O)[O-] [ABT-737]
- oral bioavailability [3]: not orally bioavailable
- aqueous solubility [4]: low aqueous solubility

SMILES: N.N.[Cl][Pt][Cl] [Cisplatin, reference compound]
- IC50 (H146): 4590 nM
- IC50 (H889): 7080 nM
- IC50 (H1963): 1670 nM

SMILES: CC1(C)CCC(CN2CCN(c3ccc(C(=O)NS(=O)(=O)c4ccc(NCC5CCOCC5)c([N+](=O)[O-])c4)c(N4CCCOc5nc6[nH]ccc6cc54)c3)CC2)=C(c2ccc(Cl)cc2)C1 [Example 2, 4-(4-((4′-chloro-5,5-dimethyl-3,4,5,6-tetrahydro-[1,1′-biphenyl]-2-yl)methyl)piperazin-1-yl)-2-(3,4-dihydro-2H-pyrrolo[3′,2′:5,6]pyrido[2,3-b][1,4]oxazepin-1(7H)-yl)-N-((3-nitro-4-(((tetrahydro-2H-pyran-4-yl)methyl)amino)phenyl)sulfonyl)benzamide]
- IC50 [1]: 0.12 nM
- IC50 (Toledo): 8.1 nM
- IC50 (MV411): 1.6 nM
- IC50 (Granta): 3.5 nM
- IC50 (H146; Homo sapiens, NCI-H146): 64 nM
- IC50 (H889; Homo sapiens, NCI-H889): 1 nM
- IC50 (H1963; Homo sapiens, NCI-H1963): 5.6 nM
- AUC(0-t) [5]: 9300 ng·h/mL
- bioavailability [5]: 49%
- half-life [5]: 4.3 h

SMILES: CC1(C)CCC(CN2CCN(c3ccc(C(=O)NS(=O)(=O)c4ccc(NCC5(F)CCOCC5)c([N+](=O)[O-])c4)c(N4CCCOc5nc6[nH]ccc6cc54)c3)CC2)=C(c2ccc(Cl)cc2)C1 [Example 3, 4-(4-((4′-chloro-5,5-dimethyl-3,4,5,6-tetrahydro-[1,1′-biphenyl]-2-yl)methyl)piperazin-1-yl)-2-(3,4-dihydro-2H-pyrrolo[3′,2′:5,6]pyrido[2,3-b][1,4]oxazepin-1(7H)-yl)-N-((4-(((4-fluorotetrahydro-2H-pyran-4-yl)methyl)amino)-3-nitrophenyl)sulfonyl)benzamide]
- IC50 [1]: < 0.1 nM
- IC50 (H146; Homo sapiens, NCI-H146): 43 nM
- IC50 (H889; Homo sapiens, NCI-H889): 0.9 nM
- IC50 (H1963; Homo sapiens, NCI-H1963): 4.2 nM
- AUC(0-t) [5]: 4160 ng·h/mL
- bioavailability [5]: 30%
- half-life [5]: 2.6 h

SMILES: CC1(C)CCC(CN2CCN(c3ccc(C(=O)NS(=O)(=O)c4ccc(NC[C@@H]5COCCO5)c([N+](=O)[O-])c4)c(N4CCCOc5nc6[nH]ccc6cc54)c3)CC2)=C(c2ccc(Cl)cc2)C1 [Example 8, 4-(4-[[2-(4-chlorophenyl)-4,4-dimethylcyclohex-1-en-1-yl]methyl]piperazin-1-yl)-N-[4-([[(2R)-1,4-dioxan-2-yl]methyl]amino)-3-nitrobenzenesulfonyl]-2-[14-oxa-2,4,10-triazatricyclo[7.5.0.0^[3,7]]tetradeca-1(9),2,5,7-tetraen-10-yl]benzamide]
- IC50 (H146): 50 nM
- IC50 (H889): 0.7 nM
- IC50 (H1963): 5.3 nM
- AUClast(h * ng/mL) [5]: 5,714 h * ng/mL
- Bioavailabilty [5]: 44%
- t ½ [5]: 2.3 h

SMILES: CC1(C)CCC(CN2CCN(c3ccc(C(=O)NS(=O)(=O)c4ccc(NC[C@H]5COCCO5)c([N+](=O)[O-])c4)c(N4CCCOc5nc6[nH]ccc6cc54)c3)CC2)=C(c2ccc(Cl)cc2)C1 [Example 9, 4-(4-[[2-(4-chlorophenyl)-4,4-dimethylcyclohex-1-en-1-yl]methyl]piperazin-1-yl)-N-[4-([[(2S)-1,4-dioxan-2-yl]methyl]amino)-3-nitrobenzenesulfonyl]-2-[14-oxa-2,4,10-triazatricyclo[7.5.0.0^[3,7]]tetradeca-1(9),2,5,7-tetraen-10-yl]benzamide]
- IC50 (H146): 33 nM
- IC50 (H889): 0.7 nM
- IC50 (H1963): 4.7 nM
- AUClast(h * ng/mL) [5]: 8,168 h * ng/mL
- Bioavailabilty [5]: 64%
- t ½ [5]: 2.3 h
